In patent US5234935A, “N-alkylated 1,4-dihydropyridine-dicarboxylic acid esters” (Bayer Aktiengesellschaft, priority 1990, dated 1993):

What was measured:
erythrocytes [1] = test: Antihaemolytic action, calcium-laden erythrocytes under high shearing stress; type: cell-based; conditions: Erythrocyte; reduction of haemoglobin release from calcium-laden erythrocytes; read-out: ED50 of the antihaemolytic action
From the text: Test b) detects the antihaemolytic action of the substances (ED50, mol/l). In this test, calcium-laden erythrocytes are forced through small pores under high shearing stresses, so that haemoglobin is released as a result of their haemolysis and measured. The reduction in haemoglobin release is the measured quantity.
Normal erythrocytes become haemolytic under high shearing stresses. The haemolysis of calcium-laden cells is particularly pronounced. This measure of mechanical stability is used for substance characterization. The measured quantity is the concentration of free haemoglobin in the medium.

erythrocytes [2] = test: Filtration of calcium-laden erythrocytes through 5 μm pores; type: cell-based; conditions: Erythrocyte, 0.5 h; filtration through 5 μm sieve pores; sheared in normal buffer 30 min; read-out: ED50 improvement in the flexibility compared to damage to control
Method: Test c) detects the filterability of calcium-laden erythrocytes through 5 μm pores (ED50, mol/l). In this test, the membrane flexibility plays a role under small force gradients.
Filtration of erythrocytes through 5 μm sieve pores is an established method for the determination of the deformability of erythrocytes. The cells are sheared in normal buffer for 30 min so that the calcium concentration increases intracellularly and the flexibility is reduced.

erythrocytes [3] = test: Calcium permeability of erythrocytes (45Ca) after ATPase blockade by Na ortho-vanadate; type: cell-based; conditions: Erythrocyte; inhibition of calcium influx (45Ca); Na ortho-vanadate 0.75 mM; read-out: ED50 of the inhibition
Method: Test a) measures the calcium permeability (^45 Ca) by blockade of the ATPases by Na ortho-vanadate. As a result, calcium can accumulate in the erythrocytes. A consequence is a reduced flexibility. ED50 values (mol/l) for the inhibition of calcium influx are given for test a).
After blockade of the membrane-immobilized ATPases by Na ortho-vanadate (0.75 mM), the calcium permeability is measured (^45 Ca method). Accumulation of calcium reduces the flexibility of the erythrocytes.

leukocyte adhesion = test: Leukocyte adhesion in hamster cheek pouch model; type: in vivo; conditions: 0.1 mg/kg i.v.; for Leukocyte adhesion, Ischaemic, control = 100%: ischaemic (10 min circulation stop), small arterioles; for Leukocyte adhesion, Non-ischaemic, control = 100%: small venules
Method: The microcirculation can be directly observed in the hamster cheek pouch model. Measured quantities are leukocyte adhesion and also vessel diameter and erythrocyte velocity. The adhesion was quantified under ischaemic and non-ischaemic experimental conditions. Under non-ischaemic conditions, the adhesion is quantified in the area of small venules, under ischaemic conditions (10 min circulation stop) the adhesion is quantified in small arterioles. The results of the control experiments are given relative to 100%. 0.1 mg/kg i.v. is in each case chosen as the test dose, the results are decreases in % of the control.

SH rats = test: Blood pressure in SH rats after p.o. administration (tail artery, Riva Rocci); type: in vivo, rat
Method: (§1) The blood pressure neutrality is determined in the following models, which are typical for dihydropyridines: in SH rats after p.o. administration by measurement in the tail artery (Riva Rocci method) and in anaesthetized Wistar rats after i.v. administration (via a catheter inserted in the carotid artery). Blood-neutral compounds are designated as those which reduce the blood pressure by at most 20% of the starting value in both test models at the dose indicated. The difference between the therapeutic dose and the blood pressure action occurring is at least a factor of 10, as a rule a factor of ≥30, in particular ≥100.

[4] = test system: anaesthetized Wistar rats; test: Blood pressure in anaesthetized Wistar rats after i.v. administration (carotid catheter); type: in vivo, rat
Method: as §1

SMILES: COC(=O)C1=C(C)N(C)C(C)=C(C(=O)OC)C1c1ccc(Cl)c(C(F)(F)F)c1 [Example 26, dimethyl 1,2,6-trimethyl-4-(4-chloro-3-trifluoromethylphenyl)-1,4-dihydro-pyridine-3,5-dicarboxylate]
- EC50 (erythrocytes [1]): 0.03 µM
- EC50 (erythrocytes [2]): 5 µM

SMILES: CCCOC(=O)C1=C(C)N(C)C(C)=C(C(=O)OCCC)C1c1ccc(C#N)cc1 [Example 15, dipropyl 1,2,6-trimethyl-4-(4-cyanophenyl)-1,4-dihydropyridine-3,5-dicarboxylate]
- EC50 (erythrocytes [1]): 5 µM

SMILES: COC(=O)C1=C(C)N(C)C(C)=C(C(=O)OC)C1c1ccc(C)c([N+](=O)[O-])c1 [Example 21, dimethyl 1,2,6-trimethyl-4-(4-methyl-3-nitrophenyl)-1,4-dihydro-pyridine-3,5-dicarboxylate]
- IC50 (erythrocytes [3]): 5 µM
- EC50 (erythrocytes [1]): 0.5 µM

SMILES: CCOC(=O)C1=C(C)N(C)C(C)=C(C(=O)OCC)C1c1ccc(C)c([N+](=O)[O-])c1 [Example 22, diethyl 1,2,6-trimethyl-4-(4-methyl-3-nitrophenyl)-1,4-dihydro-pyridine-3,5-dicarboxylate]
- EC50 (erythrocytes [1]): 0.5 µM

SMILES: COC(=O)C1=C(C)N(C)C(C)=C(C(=O)OC)C1c1ccc(C)c(C(F)(F)F)c1 [Example 27, dimethyl 1,2,6-trimethyl-4-(4-methyl-3-trifluoromethylphenyl)-1,4-dihydro-pyridine-3,5-dicarboxylate]
- IC50 (erythrocytes [3]): 1 µM
- EC50 (erythrocytes [1]): 0.05 µM

SMILES: COC(=O)C1=C(C)N(C)C(C)=C(C(=O)OC)C1c1ccc(Br)cc1 [Example 13, dimethyl 1,2,6-trimethyl-4-(4-bromophenyl)-1,4-dihydropyridine-3,5-dicarboxylate]
- IC50 (erythrocytes [3]): 5 µM
- EC50 (erythrocytes [1]): 0.5 µM

SMILES: COC(=O)C1=C(C)N(C)C(C)=C(C(=O)OC)C1c1ccc(C(F)(F)F)cc1 [Example 3, Dimethyl 1,2,6-trimethyl-4-(4-trifluoromethylphenyl)-1,4-dihydro-pyridine-3,5-dicarboxylate]
- IC50 (erythrocytes [3]): 5 µM
- EC50 (erythrocytes [2]): 5 µM
- Leukocyte adhesion, Ischaemic, control = 100% (leukocyte adhesion): 31%
- Leukocyte adhesion, Non-ischaemic, control = 100% (leukocyte adhesion): 63%
- Dose at which a blood pressure reduction occurs, p.o. (SH rats): > 30 mg/kg
- Dose at which a blood pressure reduction occurs, i.v. [4]: > 10 mg/kg

SMILES: COC(=O)C1=C(C)N(C2CC2)C(C)=C(C(=O)OC)C1c1ccc(C(F)(F)F)cc1 [Example 18, dimethyl 1-cyclopropyl-2,6-dimethyl-4-(4-trifluoromethylphenyl)-1,4-dihydro-pyridine-3,5-dicarboxylate]
- Leukocyte adhesion, Ischaemic, control = 100% (leukocyte adhesion): 32%
- Leukocyte adhesion, Non-ischaemic, control = 100% (leukocyte adhesion): 54%
- Dose at which a blood pressure reduction occurs, p.o. (SH rats): > 30 mg/kg
- Dose at which a blood pressure reduction occurs, i.v. [4]: > 10 mg/kg

SMILES: COC(=O)C1=C(C)N(C)C(C)=C(C(=O)OC)C1c1cccc(F)c1 [Example 2, Dimethyl 4-(3-fluorophenyl)-1,2,6-trimethyl-1,4-dihydropyridine-3,5-dicarboxylate]
- EC50 (erythrocytes [1]): 0.1 µM

SMILES: CCOC(=O)C1=C(C)N(C)C(C)=C(C(=O)OCC)C1c1ccc(F)cc1 [Example 1, Diethyl 1,2,6-trimethyl-4-(4-fluorophenyl)-1,4-dihydropyridine-3,5-dicarboxylate]
- EC50 (erythrocytes [2]): 5 µM

SMILES: CCCCOC(=O)C1=C(C)N(C)C(C)=C(C(=O)OCCCC)C1c1ccc([N+](=O)[O-])cc1 [Example 6, dibutyl 1,2,6-trimethyl-4-(4-nitrophenyl)-1,4-dihydropyridine-3,5-dicarboxylate]
- Leukocyte adhesion, Ischaemic, control = 100% (leukocyte adhesion): 56%
- Leukocyte adhesion, Non-ischaemic, control = 100% (leukocyte adhesion): 50%
- Dose at which a blood pressure reduction occurs, p.o. (SH rats): > 30 mg/kg
- Dose at which a blood pressure reduction occurs, i.v. [4]: > 10 mg/kg

SMILES: COC(=O)C1=C(C)N(C)C(C)=C(C(=O)OC(C)C(C)C)C1c1ccc(C(F)(F)F)cc1 (centres unmarked) [Example 9, methyl 1,2-dimethylpropyl 1,2,6-trimethyl-4-(4-trifluoromethylphenyl)-1,4-dihydro-pyridine-3,5-dicarboxylate]
- Leukocyte adhesion, Ischaemic, control = 100% (leukocyte adhesion): 36%
- Leukocyte adhesion, Non-ischaemic, control = 100% (leukocyte adhesion): 70%
- Dose at which a blood pressure reduction occurs, p.o. (SH rats): > 30 mg/kg
- Dose at which a blood pressure reduction occurs, i.v. [4]: > 10 mg/kg

SMILES: CCOC(=O)C1=C(C)N(C2CC2)C(C)=C(C(=O)OCC)C1c1ccc(C(F)(F)F)cc1 [Example 19, diethyl 1-cyclopropyl-2,6-dimethyl-4-(4-trifluoromethylphenyl)-1,4-dihydro-pyridine-3,5-dicarboxylate]
- Leukocyte adhesion, Ischaemic, control = 100% (leukocyte adhesion): 34%
- Leukocyte adhesion, Non-ischaemic, control = 100% (leukocyte adhesion): 61%
- Dose at which a blood pressure reduction occurs, p.o. (SH rats): > 100 mg/kg
- Dose at which a blood pressure reduction occurs, i.v. [4]: > 10 mg/kg

SMILES: COC(=O)C1=C(C)N(C)C(C)=C(C(=O)OC)C1c1ccc([N+](=O)[O-])c(O)c1 [Example 28, dimethyl 1,2,6-trimethyl-4-(3-hydroxy-4-nitrophenyl)-1,4-dihydro-pyridine-3,5-dicarboxylate]
- EC50 (erythrocytes [2]): 5 µM
